Measurements reported in US20200277646A1, “METHOD OF DETERMINING TERPENE-BASED BIOCONTROL AGENTS FOR CANNABIS AND HEMP” (priority 2019, published 2020).

Experiments:
Assay type in all cases: cell-based
[1] = tested on: three mold species and one species of Enterobacteriaceae found on cannabis flowers; test: Paper inhibition disc trials across several microbial species; conditions: paper inhibition discs with terpene dilutions in ethanol; EB species and three mold species
Description: The method of determining terpene-based biocontrol agents for use on cannabis and hemp include processing steps that include a. Isolate epiphytic microorganisms from cannabis ‘flower wash’ and isolate into pure cultures. b. Grow up individual fungal or bacterial broth cultures with shaking at RT until turbidity is evident; if, possible take OD600 nm reading of turbidity for each culture just prior to plating out serial dilutions onto agar plates to determine ˜CFU/ml. c. Based on CFU data from (b) above, re-inoculate fresh broth cultures for individual cultures monitoring OD600 nm to reach previous data point and make appropriate dilutions to attain complete seeding on agar petri plate. d. While allowing bacterial suspension to be absorbed into agar, prepare terpene-treated Whatman filter paper hole punches by aliquoting 25 μl of either full strength, 1:10 dilution or 1:100 dilution. Dilutions should be made into 1-15% MeOH or 1-2% castile soap. e. […] One terpene per plate at three concentrations with negative control. ii. One microbial culture seeded per plate. f. Allow plates to grow with incubation at 28° C. for overnight and photograph as well as measuring any zones of inhibition. Continue incubation for 2 more days, taking photographs and making measurements after each 24-hr period. g. Repeat steps (c) through (f) for each terpene against all microbial cultures.
These four plates show three mold species and one species of Enterobacteriaceae found on cannabis flowers 1010. One Enterobacteriaceae species sample plate and three mold species sample plates 1020. An Enterobacteriaceae Count Plate referred to herein as EB plate 1022, and mold species sample plates Mold 1 plate 1024, Mold 2 plate 1026, and Mold 3 plate 1028. The indicated colonies were picked and cultured prior to inoculation of agar petri dishes 1030. Paper inhibition discs with terpene dilutions in ethanol were applied immediately after inoculation of the agar plate as described previously 1040
The EB species and three mold species were tested for inhibition with the selected terpenes 1110. The indicated colonies were picked and cultured prior to inoculation of agar petri dishes 1120. Paper inhibition discs with terpene dilutions in ethanol were applied immediately after inoculation of the agar plate as described previously 1130. […] The results of the trials across several microbial species is continued in FIG. 11B.
There was also significant inhibition of bacterial growth by many of the terpenes 1150. Different microbial species were differentially affected by individual terpenes 1160. […]

[2] = tested on: yeast and mold species from certified reference materials; test: Paper disc inhibition on agar plates of yeast and mold species from certified reference materials; conditions: paper discs, terpene only, 10% and 1% dilutions in ethanol; ethanol-only center disc
Experimental: Paper discs were added to the plates, and small volumes of terpenes diluted in ethanol were added to the discs 902. The center discs had ethanol only, while ‘1:1’ discs had terpene only 904 and 10% and 1% dilutions of terpene in ethanol were also included 910. […] Many terpenes are likely to have inhibitory effects on microbial growth 940. […] Terpenes microbial growth inhibitor samples 970 include carene, humulene, limonene, ocimene, terpineol, and terpinolene of one embodiment.

[3] = tested on: mold found on a cannabis flower; test: Terpene added to known contaminated sample during preparation of the culture plate
Description: Terpenes can inhibit the growth of mold found on a cannabis flower 840. An effective range is 1-5% with some inhibition at levels as low as 0.1% 850 of one embodiment.

`CC(C)=CCCC(C)=CC=O` [Citral, citral] was tested, and the “effectiveness among terpenes tested” value [1] was “the most effective of terpenes tested”.

`C=CCc1ccc(O)c(OC)c1` [eugenol] was tested, and the “effectiveness among terpenes tested” value [1] was “the most effective of terpenes tested”.

With `CC(C)=CCC/C(C)=C/CO` [geraniol] the “effectiveness among terpenes tested” value [1] was “the most effective of terpenes tested”.

For `C=CC(C)(O)CCC=C(C)C` (stereo not shown) [linalool], the “effectiveness among terpenes tested” value [1] was “the most effective of terpenes tested”.

`CC1=CCC(=C(C)C)CC1` [terpinolene] was tested, and the “inhibition of yeast and mold growth” value [2] was “the most inhibition”, the “inhibition of mold growth” value ([3]; terpene added at 0.1% to known contaminated sample) was “significant inhibition of mold growth” and the “inhibition of mold growth” value ([3]; terpene added at 1% to known contaminated sample) was “significant inhibition of mold growth”.
